Data set [1] has as its target T1, ALPK1 (Homo sapiens, UniProt Q96QP1).
T1 construct: endogenous in cells; host or cells: 293T cells
Kind of data set: NF-κB luciferase reporter assay in 293T cells (cellular assay). The data set is classed as cell-based. The procedure: The compounds disclosed herein activate NF-κB through ALPK1-TIFA axis as determined by the NF-κB luciferase reporter and TIFA phosphorylation. For NF-κB luciferase assay, the plasmids (pNL2.2-BII-5RE-Luc), and control vector (pRL-TK) were transfected into 293T cells with the Jetprime reagents (Polyplus). NF-κB luciferase activity was determined using the dual luciferase assay kit (Promega) according to the manufacturer's instructions. TIFA phosphorylation upon the treatment with the compounds disclosed herein described in Table 1, were assayed with immunoblotting. Briefly, for the immunoblotting assay, the 293T cells were seeded in 12-well-plates and cultured for 16 h, and treated with indicated compounds for another 2 hours. Subsequently, the cells were collected and sampled as the regular western-blotting method, immunoblotted by the TIFA phosphorylation specific antibody (ab214815, Abcam).
The EC50 of the compounds disclosed herein were determined by the NF-κB luciferase reporter assay using 293T cells described supra. Compounds with indicated concentrations were added to the culture medium of 293T and the NF-κB luciferase activity was determined using the dual luciferase assay kit (Promega) according to the manufacturer's instructions. […] These chemical entities induce strong activation of the immune regulator NF-κB.
(Reporter assays use an easily measured gene product as a stand-in for the process of interest.)

Data set [2] deals with T1, ALPK1. Kind of data set: Enzymatic assay of ALPK1 activation. The format is biochemical.
The nature of data set [3]: PK / tissue distribution in Sprague-Dawley rats. The data set is classed as in vivo. Particulars: female, rat; for Cmax: PO, 5 mg/kg; for clearance: IV 1 mg/kg, read-out: CL post IV Dosing @1 mg/kg; for half-life: PO 5 mg/kg, read-out: T1/2 post PO Dosing @5 mg/kg (converted). The procedure: Tissue distribution study of the compounds disclosed herein were conducted in SD rats and mice to assess their liver-targeting properties. The compounds disclosed herein were orally administered to SD rats and mice, and the concentration of the compound and its metabolites were tested in plasma and liver at different time points.
The pharmacokinetics of the compounds disclosed herein were evaluated in female Sprague-Dawley rats after administration via oral gavage and intravenous bolus (IV) injection. The test compound was dissolved in 0.5% methylcellulose for oral gavage and in 30% HP-β-CD for IV injection. The animals used for oral administration were fasted overnight prior to dosing and fed normal daily feed at 4 hours post-dose, but the animals used for IV dosing had free access to food during the study. Plasma samples were collected at pre-dose, 0.033 (IV only), 0.083, 0.25, 0.5, 1, 2, 4, 7 and 24 hours post-dose. Liver samples were collected at 1, 3 and 6 hours post-dose. The samples were analyzed by LC/MS/MS and the concentrations of test compound and its metabolites at each time point were determined. Pharmacokinetic parameters were calculated from the plasma concentrations using Pheonix WinNonlin.
Particularly, preferable compounds have a ratio for liver concentration to plasma concentration of greater than 2, more preferable compounds have a ratio for liver concentration to plasma concentration of greater than 5, and most preferable compounds have a ratio for liver concentration to plasma concentration of greater than 10. The PK properties and tissue exposure of representative compounds and control compound ADPS-Heptose in Rats are given below.

Setting [4] is: plasma, read-out: Cmax in Plasma.

Like-named read-outs stand apart in the source and are kept apart here. Bounds are passed on as bounds.

Usually EC50 stands for the concentration giving half of the maximal effect. The low end stands for an effect from little substance, the high end for a need for much substance. By Cmax is commonly meant the highest concentration seen after dosing.

T1 sequence (Q96QP1 whole entry): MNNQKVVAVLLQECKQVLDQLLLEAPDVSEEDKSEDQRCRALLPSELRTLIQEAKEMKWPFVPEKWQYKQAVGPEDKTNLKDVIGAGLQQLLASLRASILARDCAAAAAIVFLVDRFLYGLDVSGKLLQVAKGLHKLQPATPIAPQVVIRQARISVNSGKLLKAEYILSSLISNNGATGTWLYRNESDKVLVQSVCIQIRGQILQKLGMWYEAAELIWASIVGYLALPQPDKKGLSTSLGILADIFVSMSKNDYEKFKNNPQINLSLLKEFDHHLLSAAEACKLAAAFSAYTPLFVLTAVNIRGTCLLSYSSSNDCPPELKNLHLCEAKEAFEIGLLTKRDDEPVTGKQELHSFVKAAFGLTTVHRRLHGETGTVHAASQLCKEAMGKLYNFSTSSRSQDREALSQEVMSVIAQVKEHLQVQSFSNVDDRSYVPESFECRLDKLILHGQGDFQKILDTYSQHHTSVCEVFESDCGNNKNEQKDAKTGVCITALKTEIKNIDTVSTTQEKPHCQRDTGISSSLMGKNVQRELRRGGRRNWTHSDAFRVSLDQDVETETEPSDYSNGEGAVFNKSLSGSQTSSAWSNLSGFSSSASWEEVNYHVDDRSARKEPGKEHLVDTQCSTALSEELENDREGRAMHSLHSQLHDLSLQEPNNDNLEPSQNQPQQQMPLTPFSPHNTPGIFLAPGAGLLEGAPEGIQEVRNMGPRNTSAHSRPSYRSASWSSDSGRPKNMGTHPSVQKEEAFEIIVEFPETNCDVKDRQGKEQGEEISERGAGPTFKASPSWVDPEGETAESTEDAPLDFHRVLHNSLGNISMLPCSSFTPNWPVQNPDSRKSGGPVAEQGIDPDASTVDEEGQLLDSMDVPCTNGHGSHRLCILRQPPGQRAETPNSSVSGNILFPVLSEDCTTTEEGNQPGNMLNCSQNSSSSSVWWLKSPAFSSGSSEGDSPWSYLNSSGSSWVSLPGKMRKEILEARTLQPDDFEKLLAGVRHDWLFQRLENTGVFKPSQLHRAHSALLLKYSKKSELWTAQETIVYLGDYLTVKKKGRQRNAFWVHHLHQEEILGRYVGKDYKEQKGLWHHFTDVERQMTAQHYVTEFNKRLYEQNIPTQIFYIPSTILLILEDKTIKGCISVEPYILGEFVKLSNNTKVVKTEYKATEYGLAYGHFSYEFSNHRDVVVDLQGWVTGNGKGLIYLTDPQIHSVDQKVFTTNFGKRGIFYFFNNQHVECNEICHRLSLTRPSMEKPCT

In the case of `C#C[C@@]1(O)[C@H](O)[C@@H](COP(=O)(S)OP(=O)(O)OC2OC([C@@H](O)CO)C(O)C(O)C2O)O[C@H]1n1cnc2c(N)ncnc21` (some centres unmarked) [Example 25D], the figures for the 50% effective concentration (EC50) at ALPK1 [1] and at ALPK1 [2] were 8.41 nM and 17 nM, respectively.
Regarding `C=C[C@@]1(F)[C@H](O)[C@@H](COP(=O)(S)OP(=O)(O)OC2OC([C@@H](O)CO)C(O)C(O)C2O)O[C@H]1n1cnc2c(N)ncnc21` (single isomer, unassigned) [Example 41D], the EC50 at ALPK1 [1] came to 5.71 nM; at ALPK1 [2] it was 4.1 nM.
For `C=C[C@@]1(O)[C@H](O)[C@@H](COP(=O)(S)OP(=O)(O)OC2OC([C@@H](O)CO)C(O)C(O)C2O)O[C@H]1n1cnc2c(N)ncnc21` (some centres unmarked) [Example 31D], the EC50 amounted to 16 nM on ALPK1 [1] and 24 nM at ALPK1 [2].
With `C#C[C@@]1(F)[C@H](O)[C@@H](COP(=O)(S)OP(=O)(O)OC2OC([C@@H](O)CO)C(O)C(O)C2O)O[C@H]1n1cnc2c(N)ncnc21` (some centres unmarked) [Example 21D], the concentration giving a half-maximal response (EC50) at ALPK1 [1] amounted to 4.08 nM; at ALPK1 [2], 26 nM.
In the same order, the values of `C=C[C@@]1(O)[C@H](O)[C@@H](CO[P@@](=O)(S)OP(=O)(O)OC2OC([C@@H](O)CO)C(O)C(O)C2O)O[C@H]1n1cnc2c(N)ncnc21` (single isomer, unassigned) [Example 31R] are 13.6 nM and 12 nM.
On to `C=C[C@@]1(O)[C@H](O)[C@@H](COP(=O)(S)OP(=O)(O)OC2OC([C@@H](O)CO)C(O)C(O)C2O)O[C@H]1n1ccc(=O)[nH]c1=O` (some centres unmarked) [Example 43D], for which the values for the EC50 at ALPK1 [1] and at ALPK1 [2] were 18.3 nM and 48 nM, respectively.
As to `C=C[C@@]1(O)[C@H](O)[C@@H](COP(=O)(S)OP(=O)(O)OC2OC([C@H](COC(C)=O)OC(C)=O)C(OC(C)=O)C(OC(C)=O)C2OC(C)=O)O[C@H]1c1cnc2c(N)ncnn12` (some centres unmarked) [Example 127C], the EC50 on ALPK1 [1] turned out to be 2.94 nM. The Cmax in data set [3] (liver, read-out: Cmax in Liver) was found to be 48.5 ng/g; in data set [3] (setting [4]), 0.4 ng/mL. For the same molecule, the clearance in data set [3] (plasma) came to 17.6 mL/min/kg. The half-life in data set [3] (plasma) is 38.4 min.
In the same order, the values of `CC(=O)OC[C@H](OC(C)=O)C1OC(OP(=O)(O)OP(=O)(S)OC[C@H]2O[C@@H](n3cnc4c(N)ncnc43)[C@H](N(C)C)[C@@H]2O)C(OC(C)=O)C(OC(C)=O)C1OC(C)=O` (some centres unmarked) [Example 35C] are 18.9 nM, 1330 ng/g, 75.5 ng/mL, 7.67 mL/min/kg and 27 min.
In the same order, the values of `C=C[C@@]1(F)[C@H](O)[C@@H](COP(=O)(S)OP(=O)(O)OC2OC([C@H](COC(C)=O)OC(C)=O)C(OC(C)=O)C(OC(C)=O)C2OC(C)=O)O[C@H]1n1ccc(=O)[nH]c1=O` (some centres unmarked) [Example 42C] are 7.57 nM, 31.7 ng/g, 2.4 ng/mL, 18.6 mL/min/kg and 37.8 min.
For `C=C[C@@]1(O)[C@H](O)[C@@H](COP(=O)(S)OP(=O)(O)OC2OC([C@H](COC(C)=O)OC(C)=O)C(OC(C)=O)C(OC(C)=O)C2OC(C)=O)O[C@H]1n1ccc(=O)[nH]c1=O` (some centres unmarked) [Example 43C], at ALPK1 [1], the midpoint of the response, the EC50, lay at 20.7 nM. The Cmax in data set [3] (liver, read-out: Cmax in Liver) worked out at 22.4 ng/g. The Cmax in data set [3] (setting [4]) is < 1 ng/mL. In data set [3] (plasma), the clearance turned out to be 8.25 mL/min/kg and the half-life is 140 min.
Turning to `C=C[C@@]1(F)[C@H](O)[C@@H](COP(=O)(S)OP(=O)(O)OC2OC([C@H](COC(C)=O)OC(C)=O)C(OC(C)=O)C(OC(C)=O)C2OC(C)=O)O[C@H]1n1cnc2c(N)ncnc21` (some centres unmarked) [Example 41C], a half-maximal effect at ALPK1 [1] (EC50) was put at 8.31 nM. The Cmax in data set [3] (liver, read-out: Cmax in Liver) was 18.7 ng/g. Further, in data set [3] (setting [4]), the Cmax was < 1 ng/mL. Besides, in data set [3] (plasma), the clearance is 9.76 mL/min/kg and the half-life is 51 min.
In turn, `C=C[C@@]1(O)[C@H](O)[C@@H](COP(=O)(S)OP(=O)(O)OC2OC([C@H](COC(C)=O)OC(C)=O)C(OC(C)=O)C(OC(C)=O)C2OC(C)=O)O[C@H]1n1cnc2c(N)ncnc21` (some centres unmarked) [Example 31C] gave an EC50 at ALPK1 [1] of 16.9 nM. Moreover, the peak concentration (Cmax) in data set [3] (liver, read-out: Cmax in Liver) came to 30.5 ng/g. In addition, in data set [3] (setting [4]), the Cmax was < 1 ng/mL. Further, in data set [3] (plasma), the clearance worked out at 14.6 mL/min/kg and the half-life was 104 min.
`C=C[C@@]1(O)[C@H](O)[C@@H](CO[P@](=O)(S)OP(=O)(O)OC2OC([C@@H](O)CO)C(O)C(O)C2O)O[C@H]1n1cnc2c(N)ncnc21` (single isomer, unassigned) [Example 31Q]: the EC50 is 7.01 nM at ALPK1 [1] and 11 nM on ALPK1 [2].
For `C#C[C@@]1(F)[C@H](O)[C@@H](COP(=O)(S)OP(=O)(O)OC2OC([C@@H](O)CO)C(O)C(O)C2O)O[C@H]1n1ccc(=O)[nH]c1=O` (some centres unmarked) [Example 22D], the EC50 at ALPK1 [1] is 5.66 nM; at ALPK1 [2], 64 nM.
Molecule `C=C[C@@]1(O)[C@H](O)[C@@H](COP(=O)(OP(=O)(O)OC2OC([C@H](COC(C)=O)OC(C)=O)C(OC(C)=O)C(OC(C)=O)C2OC(C)=O)SCOC(=O)C(C)C)O[C@H]1n1cnc2c(N)ncnc21` (some centres unmarked) [Example 31K] showed an EC50 at ALPK1 [1] of 57.6 nM.
`CC(=O)OC[C@H](OC(C)=O)C1OC(OP(=O)(O)OP(=O)(S)OC[C@H]2O[C@@H](n3ccc(=O)[nH]c3=O)[C@](C)(N)[C@@H]2O)C(OC(C)=O)C(OC(C)=O)C1OC(C)=O` (some centres unmarked) [Example 112C] returned an EC50 on ALPK1 [1] of 360 nM.
Turning to `C#C[C@@]1(F)[C@H](O)[C@@H](COP(=O)(S)OP(=O)(O)OC2OC([C@H](COC(C)=O)OC(C)=O)C(OC(C)=O)C(OC(C)=O)C2OC(C)=O)O[C@H]1n1cnc2c(N)ncnc21` (some centres unmarked) [Example 21C], the EC50 at ALPK1 [1] was 15.2 nM. This EC50 is about 24-fold lower than that of the molecule before.
Consider `C#C[C@@]1(O)[C@H](O)[C@@H](COP(=O)(S)OP(=O)(O)OC2OC([C@@H](F)COC(C)=O)C(OC(C)=O)C(OC(C)=O)C2OC(C)=O)O[C@H]1n1cnc2c(N)ncnc21` (some centres unmarked) [Example 25A], for which the EC50 on ALPK1 [1] was determined as 244 nM.
On to `CN(C)[C@@H]1[C@H](O)[C@@H](CO[P@@](=O)(S)OP(=O)(O)OC2OC([C@@H](O)CO)C(O)C(O)C2O)O[C@H]1n1cnc2c(N)ncnc21` (single isomer, unassigned) [Example 35J], for which the half-maximal effective concentration (EC50) at ALPK1 [1] stood at 10.3 nM.
With `C=C[C@@]1(F)[C@H](O)[C@@H](COP(=O)(S)OP(=O)(O)OC2OC([C@@H](O)CO)C(O)C(O)C2O)O[C@H]1n1ccc(=O)[nH]c1=O` (some centres unmarked) [Example 42D], the EC50 at ALPK1 [1] came out at 14 nM; at ALPK1 [2], 11 nM.
In turn, `C=C[C@@]1(O)[C@H](O)[C@@H](COP(=O)(OP(=O)(O)OC2OC([C@H](COC(C)=O)OC(C)=O)C(OC(C)=O)C(OC(C)=O)C2OC(C)=O)SCOC(=O)OC(C)C)O[C@H]1n1cnc2c(N)ncnc21` (some centres unmarked) [Example 31L] returned an EC50 on ALPK1 [1] of 13.8 nM. That is a double-digit nanomolar value.
Turning to `CN(C)[C@@H]1[C@H](O)[C@@H](CO[P@](=O)(S)OP(=O)(O)OC2OC([C@@H](O)CO)C(O)C(O)C2O)O[C@H]1n1cnc2c(N)ncnc21` (single isomer, unassigned) [Example 35I], the EC50 at ALPK1 [1] stood at 10.9 nM.
`C=C[C@@]1(O)[C@H](O)[C@@H](COP(=O)(S)OP(=O)(O)OC2OC([C@H](COC(=O)C(C)C)OC(=O)C(C)C)C(OC(C)=O)C(OC(C)=O)C2OC(C)=O)O[C@H]1n1cnc2c(N)ncnc21` (some centres unmarked) [Example 31M]: the EC50 at ALPK1 [1] came out at 2.99 nM.

For the origin of these results see patent US20250034197A1, “NUCLEOSIDE-DIPHOSPHATE-HEPTOSE COMPOUNDS FOR TREATING CONDITIONS ASSOCIATED WITH ALPK1 ACTIVITY” (PYROTECH (BEIJING) BIOTECHNOLOGY CO., LTD., priority 2021, published 2025).
